Measurements reported in patent US8232408B2, “Crystalline 1-(3-fluorophenyl)-5-methyl-2-(1H)pyridone, the preparation methods, compositions and applications thereof” (Sunshine Lake Pharma Co., Ltd., priority 2008, dated 2012).
Values after ≈ are worked out from the molar mass of the structure shown. Read-outs that look alike come from different tables or passages of the source.

Legend:
[1] = tested on: renal interstitial cell; conditions: cited from earlier work
[2] = Solubility per "Testing Method For Determining The Solubility", Chinese Pharmacopoeia 2005; type: physicochemical; conditions: water, 25±1° C.
Description: (Testing method is according to the “Testing Method For Determining The Solubility” in The Chinese Pharmacopoeia 2005, the example section of the second part, the last line on the first page to the first line on the second.)
2. […] It can ensure that the drug can be steadily released after taking orally. The drug can mix with one's internal environment easily after release, which renders the steady absorption of the drug, and the achievement of a relatively stable bioavailability.

[3] = Solubility measurement: excess sample shaken in purified water for 48 hours, filtered supernatant measured; type: physicochemical; conditions: thermodynamic from solid, shaken 48 hours
Procedure: Solubility measurement: excess crystalline FFD solid dispersion was put into a cone-shaped bottle with a stopper. After 100 ml purified water was added, the solution was shaken at a constant of 25° C. and 37° C. separately for 48 hours. The filtered supernatants were diluted and their concentrations were measured thrice for each sample.

solubility ([2]; 25 °C, thermodynamic from solid, read-out: solubility) [µg/mL]	solubility at 48 h ([3]; 25° C.) [µg/mL]	solubility at 48 h ([3]; 37° C.) [µg/mL]	solubility [2]	SMILES	effect on anti-fibrosis [1]
1410 to 1490 (≈ 6.94 to 7.33 mM)				Cc1ccc(=O)n(-c2cccc(F)c2)c1 [FFD, 1-(3-fluorophenyl)-5-methyl-2-(1H)-pyridone]	good effect on anti-fibrosis
	2440 to 2550 (≈ 12 to 12.5 mM)	3140 to 3160	2.44˜2.55 mg/ml	Cc1ccc(=O)n(-c2cccc(F)c2)c1 [crystalline FFD, 1-(3-fluorophenyl)-5-methyl-2-(1H)-pyridone]	
